Measurements published in patent US20230321171A1, “ANTI-COCCIDIAL COMPOSITION COMPRISING MANGOSTEEN AND USES THEREOF” (CJ CHEILJEDANG CORPORATION, priority 2020, published 2023).

Assays:
Eimeria acervulina = assay: Protozoan (sporozoite) direct killing ability, Eimeria acervulina; type: cell-based; details: for Eimeria acervulina protozoal death rate (%): compared to PBS-treated negative control group; for Minimum concentration for killing 100% protozoa (ppm), Eimeria acervulina: tested 1 to 500 ppm
Experimental: In the present example, protozoan (sporozoite) direct killing ability evaluation was conducted against 3 representative Eimeria kinds known to be infected in most farms (E. tenella, E. acervulina, E. maxima).
A certain amount of oocysts of each protozoan was put in a tube containing glass beads and pulverized, and then to remove the crushed oocyst cell wall and other debris, internal sporocysts were purified using the percoll density gradient, and washed with PBS solution. A reagent comprising sodium taurocholic acid (Sigma aldrich, USA) and trypsin (Gibco, USA), respectively, was treated to sporocysts of Eimeria tenella, Eimeria acervulina and Eimeria maxima for excystation and they were incubated, and then they were washed with PBS solution once and protozoa were obtained.
After reacting the mangosteen pericarp extract, epicatechin, alpha-mangostin, xanthone and anticoccidial agents, salinomycin and diclazuril (hereinafter, material) with 3 kinds of Eimeria protozoa at various concentrations of 1 to 500 ppm, respectively, only alive protozoa (sporozoites) were counted through microscopic observation. Then, the death rate (%) of the protozoa when each material was treated compared to the PBS-treated negative control group was calculated and shown in Table 8 to Table 10 and Table 12, respectively, and the minimum concentration which directly killed the protozoa by 100% was shown in Table 11 below.

[1] = tested on: MDBK(Madin-Darby Bovine Kidney Epithelial Cells); assay: Cytotoxicity, MTS analysis, MDBK; details: 3.1~500 ppm/well, 14 hours + 2 hours MTS, vs 5% DMSO treatment group
From the text: In the present example, using MTS analysis method (3-(4,5-[…])-5-(3-carboxymethoxyphenyl)-2-(4-sulfophenyl)-2H-tetrazolium, promega, USA), an effect on survival of cells of the mangosteen extract was investigated.
The cell lines utilized in cytotoxicity evaluation were (1) MDBK(Madin-Darby Bovine Kidney Epithelial Cells) and (2) RAW264.7(Mouse macrophage cell), and all of them were purchased from ATCC and used.
Each cell was aliquoted at a concentration of 1×10^5 cell/well in a 96-well cell culture plate, and cultured at 37° C. for 24 hours, and then each material (mangosteen extract, xanthone, alpha-mangostin and epicatechin) was treated by concentration (3.1˜500 ppm/well) and cultured at a temperature of 37° C.

[2] = Broiler growth effect (daily weight gain) due to intake in feed; type: in vivo, Ross broilers; details: for End body weight: non-infected broilers
Experimental: An efficacy evaluation test was performed in an animal experiment facility in Gyeongsangnam-do, South Korea. One-day-old female Ross broilers were individually weighed and randomly divided into groups to use in an experiment. Matters and conditions for experimental design were described in Table 16.
A breeding farm was managed according to the Korean poultry breeding management guidelines. Cages and the breeding farm were cleaned and disinfected before starting the test. The temperature of […] and the humidity of 40 to 50% of the breeding farm were maintained, and it was continuously monitored.
For the feed, Korea Feed A1-choi product was used, and each material (salinomycin (Cheil Bio Cheilsalino-60 product), xanthone (Sigma Aldrich X600 product), and the mangosteen extract prepared in Example 1-2 above) was added to the feed, respectively, at a concentration described in Table 17 below to be self-mixed. Antibiotics and supplements were not used in general feed and mixed feed, and no anticoccidial agent other than each material was added. Broilers were fed ad libitum throughout the experiment period. After putting 20 1-day-age broilers in cages randomly placed for each of the control group or test group and breeding, general feed was fed for 7 days, and then the mixed feed prepared above was ingested by dividing by control group or test group. The feed formulation administered to the control group (negative control group or positive control group) and test group was described in Table 17 below.
The body weight before feeding and on the 7th day after feeding the feed of Table 16 above into individuals was measured, and the difference was divided by the number of days to calculate the daily weight gain (ADG, g/d), and the result was shown in Table 18. For comparison between 6 treatment groups, Duncan post-test multiple comparison method was used, and statistical significance was verified using a SAS statistical program, and the result was shown in Table 18.

[3] = formulated feed 125 ppm for 7 days
[4] = formulated feed 250 ppm for 7 days

In the case of `O=c1c2ccccc2oc2ccccc12` [Xanthone, xanthone], the “Eimeria acervulina protozoal death rate (%)” value (Eimeria acervulina; 1 ppm) is reported as 0%, the “Eimeria acervulina protozoal death rate (%)” value (Eimeria acervulina; 5 ppm) is reported as 0% and the “Eimeria acervulina protozoal death rate (%)” value (Eimeria acervulina; 10 ppm) is reported as 0%. For the same molecule, the “Eimeria acervulina protozoal death rate (%)” value (Eimeria acervulina; 50 ppm) was 0%, the “Eimeria acervulina protozoal death rate (%)” value (Eimeria acervulina; 100 ppm) was 0% and the “Eimeria acervulina protozoal death rate (%)” value (Eimeria acervulina; 125 ppm) was 0%. For the same molecule, the “Eimeria acervulina protozoal death rate (%)” value (Eimeria acervulina; 250 ppm) was 11%, the “Eimeria acervulina protozoal death rate (%)” value (Eimeria acervulina; 500 ppm) was 25% and the “Minimum concentration for killing 100% protozoa (ppm), Eimeria acervulina” value (Eimeria acervulina) was over 500 ppm. For the same molecule, the “Minimum concentration for killing 100% protozoa (ppm), Eimeria acervulina” value (Eimeria acervulina; listed as xanthone) was over 500 ppm, the “Minimum concentrataion of cytotoxicity at which cells of 50% or more survive (ppm)” value [1] was at least 62.5 ppm and the “Daily weight gain compared to the negative control group, in words” value ([2]; Table 18, Duncan p < 0.05, mangosteen extract also vs positive control and xanthone groups) was “rather reduced”. The “Daily weight gain (ADG)” value [2, 3] was 43.86 g/day, the “End-initial body weight (7 days, g)” value [2, 3] was 307 g and the “End body weight” value [2, 3] was 509 g. For the same molecule, the “Daily weight gain (ADG)” value [2, 4] was 40.57 g/day, the “End-initial body weight (7 days, g)” value [2, 4] was 284 g and the “End body weight” value [2, 4] was 485 g.
